Assay results from patent US20250186457A1, “USE OF AN ORGANOMETALLIC RUTHENIUM COMPOUND FOR THE PREVENTION AND/OR TREATMENT OF DISEASES AND/OR CONDITIONS RELATED TO CANCER IN AN INDIVIDUAL” (FACULDADE DE CIÊNCIAS DA UNIVERSIDADE DE LISBOA, priority 2022, published 2025).

Experiments:
[1] = system: KRAS, pAKT, total-AKT, pERK and total-ERK proteins, in SW480 cells; experiment: Western blot analysis, SW480 cells harboring KRAS mutation; assay type: cell-based; settings: 48 h at the IC50 concentration of each compound, KRAS mutated
Method: SW480 cells were exposed for 48 h, at the IC50 concentration of each compound before protein extraction and Western blot analysis.

[2] = system: KRAS, pAKT, total-AKT, pERK and total-ERK proteins in RKO cells; experiment: Western blot analysis, RKO cell line harboring wild-type KRAS; assay type: cell-based; settings: 48 h with IC50 values
[3] = system: proteins involved in MAPK and PI3K signaling pathways, in SW480 cells; settings: SW480, 48 h, IC50 of PMC79
Method: Samples were processed for LC-MS/MS analysis (Chiva et al. 2018; Olivella et al. 2021). Protein identification and validation, and gene ontology, localization and network analysis were performed as previously described (Perkins et al., 1999; Beer et al., 2017; Perez-Riverol et al., 2022).
Values represent mean of at least three independent experiments.

[4] = system: KRAS, pAKT, total-AKT, pERK and total-ERK proteins, in LS174T cells; settings: 48 h of incubation, KRAS mutation
Method: Preparation of total protein extracts of colorectal cancer cell lines (RKO, LS174T and SW480), SDS-PAGE and Western blots were performed as previously described (Alves et al., 2015).
The Antibodies used were anti-KRAS and β-actin (Sigma); anti-phospho p44/42 MAPK (Thr202/Tyr204) (pERK), anti-p44/42 total (ERK), anti-phospho Akt (Ser473) (pAKT) and anti-Akt total (Cell Signaling) (AKT); GAPDH (Gene Tex). Proteomic study
GAPDH immunoblot was used as a loading control. The results were obtained from at least three independent experiments.

SW480 cell line [5] = settings: IC50 of PMC79, 48 h
Method: After 48 h, cells were processed according with (Teixeira et al., 2018). Slides were maintained at −20° C. until visualization in a fluorescence microscope (Leica DM 5000B, Leica Microsystems, Wetzlar, Germany).
DAPI ([…]), FITC (fluorescein isothiocyanate) and merged were obtained by fluorescence microscopy.

SW480 = settings: IC50 value, 48 h
Method: Acquisition was performed using CytoFLEX Cytometer (Beckman Coulter, Brea, CA, USA).
The FIG. 4 illustrates the apoptotic cell death analysis.

SW480 cells = settings: IC50 and 2×IC50, 48 h and 72 h
Method: SW480 cells were incubated with the dye and seeded according to the procedure recommended by CFSE package insert (BD Horizon™). […] After 48 h and 72 h, both floating and attached cells were collected, washed with PBS, centrifuged at 500 rpm for 10 min and the pellet resuspended in PBS before cytometer acquisition.
The effects on proliferation were also studied using carboxyfluorescein succinimidyl ester assay (CFSE). […] Thus, when cell proliferation is inhibited, we observe an increase of the intracellular fluorescence.
The FIG. 3 illustrates the quantification of CFSE median fluorescence intensity normalized to T0 after 48 and 72 h of incubation with IC50 and 2×IC50, in SW480 cell line. The values represent mean±S.D. of at least three independent experiments. Statistical analysis was performed by two-way ANOVA with Dunnett's multiple comparisons test. **P≤0.01; ***P≤0.001; ****P≤0.0001 compared with negative control.

SW480 cell line [6] = settings: IC50 value, 48 h
Method: SW480 cell line was seeded in 12-well plates with one coverslip per well. […] After 48 hours of incubation, the cells were fixed and stained as previously described (Pilon et al., 2020). Representative images were obtained in a fluorescence microscope (Olympus motorized BX63F Upright Microscope) (Olympus@, Tokyo, Japan) at a magnification of 600×.
Representative images (×600) of DAPI (4′,6-diamidino-2-phenylindole), Phalloidin-AlexaFluor 568 and merged were obtained in a fluorescence microscope. The results were obtained from at least three independent experiments.

SW480 cell line [7] = experiment: Colony formation assay; settings: 48 h with ¼ IC50 and ½ IC50, SW480
Method: SW480 cell line was seeded, at a concentration of 500 cells/ml, in 6-well plates. […] The negative control cells were treated with DMSO 0.1%. […] Medium was renewed every 3 days. Nine days after removing the treatments, cells were stained as previously described (Côrte-Real, Karas, Brás, et al., 2019).
The FIG. 1 illustrates the analysis of the colony formation ability, after 48 h of incubation with ¼ IC50 and ½ IC50, in SW480 cell line. […] The values represent mean±S.D. of at least three independent experiments. Statistical analysis was performed by one-way ANOVA with Dunnett's multiple comparisons test. ****P≤ 0.0001 compared with negative control.

breast cancer cell lines [8] = settings: cited from earlier work
[9] = system: noncancerous NCM460 cell line derived from normal colon epithelial mucosa; settings: read-out: IC50 in noncancerous cell line NCM460; Sulforhodamine B, 48 h
Method: (§1) The noncancerous NCM460 cell line derived from normal colon epithelial mucosa, was obtained from INCELL's (Moyer et al., 1996), and the colorectal cancer derived cell lines, SW480, LS174T and RKO, were obtained from American Type Culture Collection (ATCC). All cell lines were maintained at 37° C. under a humidified atmosphere containing 5% CO2. NCM460 and SW480 cells were grown in RPMI medium and LS174T and RKO cells in DMEM, all supplemented with 10% FBS and 1% penicillin/streptomycin. SW480 cell were seeded normally at a concentration of 1×10^5 cells/ml except for some specific assays.
(§2) After 48 h of treatment, Sulforhodamine B was performed as previously described (Côrte-Real et al., 2019). Results were expressed relatively to the negative control (1), which was considered as 100% of cell growth.
(§3) Values represent mean+SD of at least three independent experiments.

SW480 CRC cell line = settings: read-out: IC50 in SW480 CRC cell line; Sulforhodamine B, 48 h
Method: as §1, §2, §3

breast cancer cell lines [10] = settings: cited from earlier work; remark: listed apart in the source
A2780 = settings: read-out: IC50 A2780; ovarian cancer cell line; cited from earlier work
MCF7 = settings: breast cancer cell line; cited from earlier work
MDA-MB-231 = settings: read-out: IC50 MDA-MB-231 (PMC79); breast cancer cell line; cited from earlier work
SW480 cell line [11] = system: SW480 cell line
Method: SW480 cell line was seeded in 6-well plates. […] 24 h and 48 h later, cells were collected and processed according to the method described in (Teixeira et al., 2018). Cell-cycle phase data analysis and quantification was performed using FlowJo 10.7.2 software.

breast cancer cell lines [12] = settings: cited from earlier work; remark: listed apart in the source
SW480 cell line [13] = experiment: Wound healing assay; settings: IC50 and 2×IC50, 12 h
Method: SW480 cell line was seeded at a concentration of 7×10^5 cells/ml, in 6-well plates. […] The negative control cells were treated with DMSO 0.1%. Each condition was photographed at 0 h, 4 h, 8 h and 12 h. To analyze the data and measure the wound size at each time-point ImageJ 1.53a software was used.
Values represent mean±S.D. of at least three independent experiments. Statistical analysis was performed by one-way ANOVA with Turkey's multiple comparisons test. *P≤0.05; ***P≤0.001 compared with negative control.

N.N.[Cl][Pt][Cl] [cisplatin, reference compound]
expression of KRAS, pERK, total-ERK, pAKT and total-AKT in SW480 [1]: not observed | expression of KRAS, pERK, total-ERK, pAKT and total-AKT in RKO [2]: The same was also observed

O=S(=O)([O-])C(F)(F)F.OCc1ccnc(-c2cc(CO)ccn2)c1.[Ru+2].c1cc[cH-]c1.c1ccc(P(c2ccccc2)c2ccccc2)cc1 [PMC79, ({2,2′-bipyridine}-4,4′-diyldimethanol-k^2N, N′)(η^5-cyclopentadienyl) (6riphenylphosphine) ruthenium (II) triflate]
Abundance Ratio (log2): (pmc79)/(Control), AKT1 [3]: −0.4039 | Abundance Ratio (log2): (pmc79)/(Control), AKT2 [3]: −0.2506 | Abundance Ratio (log2): (pmc79)/(Control), EGFR [3]: −0.948 | Abundance Ratio (log2): (pmc79)/(Control), ERK1 [3]: −0.3601 | Abundance Ratio (log2): (pmc79)/(Control), KRAS [3]: −0.4019 | Abundance Ratio (log2): (pmc79)/(Control), MEK1 [3]: −0.5421 | Abundance Ratio (log2): (pmc79)/(Control), MEK2 [3]: −0.2365 | Abundance Ratio (log2): (pmc79)/(Control), MTOR [3]: −1.326 | Abundance Ratio (log2): (pmc79)/(Control), PIK3C3 [3]: −0.1795 | Abundance Ratio (log2): (pmc79)/(Control), PIK3R4 [3]: −0.5555 | abundance of all proteins involved in KRAS signaling pathways versus control ([3]; EGFR, KRAS, MEK 1, MEK 2, ERK1, PIK3, AKT1, AKT2, MTOR): less abundant | expression of KRAS, pERK, total-ERK, pAKT and total-AKT in LS174T [4]: able to inhibit the expression | TUNEL positive cells (SW480 cell line [5]): increase of the number of apoptotic cells (TUNEL positive) | necrotic cells (AV−/PI+) (SW480): 10% | percentage of apoptotic cells (AV+/PI−; AV+/PI+) (SW480): 74% | proliferation (CFSE median fluorescence intensity) (SW480 cells): decrease in proliferation under all conditions | F-actin organization and morphology (SW480 cell line [6]): affect cell-cell adhesion and intercellular contacts establishment | clonogenic ability (colony formation) (SW480 cell line [7]): significantly decreased the clonogenic ability | mitochondria morphology and actin cytoskeleton in breast cancer cell lines (breast cancer cell lines [8]): induced alterations in mitochondria morphology | IC50 [9]: 44 µM | IC50 (SW480 CRC cell line): 40 µM | apoptosis (Annexin V stained cells) in breast cancer cell lines (breast cancer cell lines [10]): induced apoptosis | IC50 (A2780): 3.9 µM | expression of KRAS, pERK, total-ERK, pAKT and total-AKT in SW480 [1]: inhibit to a very high extent | IC50 (MCF7): 5.9 µM | IC50 (MDA-MB-231): 2.1 µM | cell cycle alteration at 24 h (SW480 cell line [11]; IC50 of PMC79, 24 h): cell cycle arrest at G0/G1 phase | cell cycle alteration at 48 h (SW480 cell line [11]; IC50 of PMC79, 48 h): increase of sub-G1 population | expression of KRAS, pERK, total-ERK, pAKT and total-AKT in RKO [2]: no effect | proliferation / colony formation ability in breast cancer cell lines (breast cancer cell lines [12]): inhibited proliferation by decreasing colony formation ability | percentage of wound closure (SW480 cell line [13]): decreased the percentage of wound closure in a dose-dependent manner
